Source: patent publication US10669242B2 (priority 2016, dated 2020)

Target: T1, recombinant glucosyltransferase domain of C. difficile Toxin B/TcdB (Clostridioides difficile, UniProt P18177)
T1 construct: 6-His (C); purchased R&D Systems 6246-GT
Experiment: biochemical

T1 sequence (P18177 1-543): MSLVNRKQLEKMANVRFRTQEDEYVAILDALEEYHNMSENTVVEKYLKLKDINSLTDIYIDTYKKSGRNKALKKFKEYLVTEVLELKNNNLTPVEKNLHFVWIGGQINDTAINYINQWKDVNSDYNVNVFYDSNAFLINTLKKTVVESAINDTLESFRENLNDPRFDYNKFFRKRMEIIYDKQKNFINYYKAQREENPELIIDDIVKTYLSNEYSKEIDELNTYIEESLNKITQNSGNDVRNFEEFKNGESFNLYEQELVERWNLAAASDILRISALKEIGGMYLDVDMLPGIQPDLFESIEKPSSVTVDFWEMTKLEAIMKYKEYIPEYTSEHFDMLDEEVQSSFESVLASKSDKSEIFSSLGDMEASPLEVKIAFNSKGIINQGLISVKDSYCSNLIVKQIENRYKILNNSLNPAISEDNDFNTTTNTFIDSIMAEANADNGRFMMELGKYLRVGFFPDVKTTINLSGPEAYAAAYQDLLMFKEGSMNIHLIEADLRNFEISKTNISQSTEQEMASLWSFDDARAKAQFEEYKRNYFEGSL

SMILES | IC50 [nM]
Cc1ccc(NC(=O)c2ccc(CN3C(=O)c4ccc(Cl)cc4NC(=O)[C@H]3CCN(C)C)cc2)nc1 [Example 10f, (R)-4-((8-chloro-3-(2-(dimethylamino)ethyl)-2,5-dioxo-2,3-dihydro-1H-benzo[e][1,4]diazepin-4(5H)-yl)methyl)-N-(5-methylpyridin-2-yl)benzamide] | 10000 to 35000
O=C1Nc2cc(Cl)ccc2C(=O)N(C[C@H]2CC[C@H](C(=O)c3ccccn3)CC2)[C@@H]1Cc1ccccn1 [Example 11c, (R)-8-chloro-4-((4-picolinoylcyclohexyl)methyl)-3-(pyridin-2-ylmethyl)-3,4-dihydro-1H-benzo[e][1,4]diazepine-2,5-dione] | < 100
Cc1ccnc(C(=O)c2ccc(CN3C(=O)c4ccc(Cl)cc4NC(=O)[C@H]3Cc3ccccn3)cc2)c1 [Example 11d, (R)-8-chloro-4-(4-(4-methylpicolinoyl)benzyl)-3-(pyridin-2-ylmethyl)-3,4-dihydro-1H-benzo[e][1,4]diazepine-2,5-dione] | < 100
Cc1cccc(C(=O)c2ccc(CN3C(=O)c4ccc(Cl)cc4NC(=O)[C@H]3Cc3ccccn3)cc2)n1 [Example 11e, (R)-8-chloro-4-(4-(6-methylpicolimoyl)benzyl)-3-(pyridin-2-ylmethyl)-3,4-dihydro-1H-benzo[e][1,4]diazepine-2,5-dione] | 100 to 999
O=C(c1ccccn1)c1ccc(CN2C(=O)c3ccc(Cl)cc3NC(=O)[C@H]2Cc2ccccn2)cc1F [Example 11f, (R)-8-chloro-4-(3-fluoro-4-picolinoylbenzyl)-3-(pyridin-2-ylmethyl)-3,4-dihydro-1H-benzo[e][1,4]diazepine-2,5-dione] | < 100
Cc1cc(CN2C(=O)c3ccc(Cl)cc3NC(=O)[C@H]2Cc2ccccn2)ccc1C(=O)c1ccccn1 [Example 11h, (R)-8-chloro-4-(3-methyl-4-picolinoylbenzyl)-3-(pyridin-2-ylmethyl)-3,4-dihydro-1H-benzo[e][1,4]diazepine-2,5-dione] | < 100
Cc1cccnc1C(=O)c1ccc(CN2C(=O)c3ccc(Cl)cc3NC(=O)[C@H]2Cc2ccccn2)cc1F [Example 11i, (R)-8-chloro-4-(3-fluoro-4-(3-methylpicolinoyl)benzyl)-3-(pyridin-2-ylmethyl)-3,4-dihydro-1H-benzo[e][1,4]diazepine-2,5-dione] | 1000 to 10000
COc1cc(CN2C(=O)c3ccc(Cl)cc3NC(=O)[C@H]2Cc2ccccn2)ccc1C(=O)c1ccccn1 [Example 11j, (R)-8-chloro-4-(3-methoxy-4-picolinoylbenzyl)-3-(pyridin-2-ylmethyl)-3,4-dihydro-1H-benzo[e][1,4]diazepine-2,5-dione] | < 100
CC(=O)NC(=O)c1ccc(CN2C(=O)c3ccc(Cl)cc3NC(=O)[C@H]2Cc2ccccn2)cc1 [Example 12a, (R)—N-Acetyl-4-((8-chloro-2,5-dioxo-3-(pyridin-2-ylmethyl)-2,3-dihydro-1H-benzo[e][1,4]diazepin-4(5H)-yl)methyl)benzamide] | < 100
O=C1Nc2cc(Cl)ccc2C(=O)N(Cc2ccc(C(=O)N3CCCC3=O)cc2)[C@@H]1Cc1ccccn1 [Example 12b, (R)-8-chloro-4-(4-(2-oxopyrrolidine-1-carbonyl)benzyl)-3-(pyridin-2-ylmethyl)-3,4-dihydro-1H-benzo[e][1,4]diazepine-2,5-dione] | 1000 to 10000
NC(=O)c1ccc(CN2C(=O)c3ccc(Cl)cc3NC(=O)[C@@H]2Cc2ccc(Cl)c(Cl)c2)cc1 [Example 13a, (S)-4-((8-Chloro-3-(3,4-dichlorobenzyl)-2,5-dioxo-2,3-dihydro-1H-benzo[e][1,4]diazepin-4(5H)-yl)methyl)benzamide] | 10000 to 35000
CN(C)C(=O)c1ccc(CN2C(=O)c3ccc(Cl)cc3NC(=O)[C@H]2Cc2cccnc2)cc1 [Example 13b, (R)-4-((8-chloro-2,5-dioxo-3-(pyridin-3-ylmethyl)-2,3-dihydro-1H-benzo[e][1,4]diazepin-4(5H)-yl)methyl)-N,N-dimethylbenzamide] | 10000 to 35000
